{
  "source": "patent US8501715B2",
  "about": "“Oxidized lipids and uses thereof in the treatment of inflammatory diseases and disorders” (Vascular Biogenics Ltd., priority 2003, dated 2013)",
  "key": {"IL12p40 [1]": {"system": "IL12p40", "conditions": "human Mo-DC's, PGN 10 μg/ml, 24 hours", "procedure": "(§2) Supernatants were collected 24 hours following activation and the levels of p40 (FIG. 30a) and TNF-α (FIG. 30b) were measured by ELISA.\n(§3) Isolation of human monocyte derived dendritic cells (Mo-DC's): PBMCs were isolated from heparinized whole blood from healthy donors by Ficoll-Paque (Amersham, Uppsala, Sweden). Cells were incubated at 4° C. for 15 minutes in buffer containing PBS, 0.5% bovine serum albumin (BSA) and 2 mM EDTA with human CD14 microbeads (Miltenyi biotech) washed and positively selected on a Midi-Macs separation unit through LS column. The resulting cells were counted washed and seeded (10^6/ml) in medium containing RPMI-1640, L-glutamine, 3-mercaptoethanol, 10% FCS, antibiotics (Penicillin, Streptomycin), non essential amino acids, sodium pyruvate, 40 ng/ml of human GM-CSF and 20 ng/ml of human IL-4 (R&D systems, Minneapolis, Minn.). Medium was replaced every other day and cells were used for subsequent experiments on days 5-6 post culturing. Cell purity was >75% as determined by FACS for CD11c.\n(§4) Cytokine analysis: For the detection of cytokine production, supernatants from BMDC's and Mo-DC's following a 24 hour treatment were tested with Duoset ELISA kits for mouse IL12p40, TNF-α, IL-6 and human IL12p40 and TNF-α (R&D systems, Minneapolis, Minn.) respectively."}, "TNF-α [2]": {"system": "TNF-α", "conditions": "BMDC's, activators other than PolyI:C", "procedure": "Isolation of bone-marrow derived dendritic cells (BMDC's): Bone-marrow was flushed out with cold RPMI-1640 from mice femur and tibia. […] Cells were then washed, resuspended in the same buffer, and depleted from B and T cells on a Midi-Macs separation unit through a LD or LS column (Miltenyi biotech). The depleted cells were then counted, washed and seeded (10^6/ml) in medium containing RPMI-1640, L-glutamine, β-mercaptoethanol, 10% FCS, antibiotics (Penicillin, Streptomycin) and 20 ng/ml of mouse GM-CSF (Peprotech, Rehovot, Israel). Medium was replaced every other day and cells were used for subsequent experiments on days 5-6 post culturing.\nas §4"}, "IL-12": {"system": "IL-12", "experiment": "RT-PCR cytokine expression in the aorta: IL-12", "type": "in vivo", "conditions": "oral 1 mg/mouse 5 times every other day, 8 weeks after final administration", "experimental": "(§1) The effect of ALLE, CI-201, its corresponding acetal derivatives Et-acetal and Me-acetal (Compounds IIa and IIb, FIG. 10) and oxLDL on cytokine expression in the target organ—the aorta—was evaluated using RT-PCR as described hereinabove. […] Oral administrations took place 5 times every other day."}, "IL-10 [3]": {"system": "IL-10", "conditions": "oral 0.1 μg/mouse 5 times every other day", "procedure": "(§5) Inflammatory Markers Evaluation in Serum: Serum was separated by centrifuge and stored at −70° C. Analysis of inflammatory markers was performed by ELISA (IL-10; R&D and SAA; BIOSOURCE).\n(§6) Thus, Apo-E KO mice were orally administered with 0.1 μg/mouse CI-201 or 0.2 ml/mouse PBS, 5 times every other day. Mice serum was collected before treatment (day 0), at the end of the treatment (two weeks) and two weeks thereafter (4 weeks) and the level of the inflammation markers IL-10 and Serum Amyloide A (SAA) were evaluated."}, "IL-12p35": {"system": "IL-12p35", "experiment": "Q-PCR RNA expression in CD11c+ BMDC's: IL-12p35", "conditions": "CI-201 20 μg/ml, PGN 10 μg/ml"}, "Serum Amyloide A (SAA)": {"system": "Serum Amyloide A (SAA)", "experiment": "Inflammatory markers in serum (ELISA): SAA", "type": "in vivo", "conditions": "oral 0.1 μg/mouse 5 times every other day; day 0, 2 and 4 weeks; control group dramatically increased", "procedure": "as §5, §6"}, "IFN-γ [4]": {"system": "IFN-γ", "experiment": "RT-PCR cytokine expression in the aorta: IFN-γ", "type": "in vivo", "conditions": "oral 1 mg/mouse 5 times every other day, 8 weeks after final administration", "experimental": "as §1"}, "IL-27p28": {"system": "IL-27p28", "experiment": "Q-PCR RNA expression in CD11c+ BMDC's: IL-27p28", "conditions": "CI-201 20 μg/ml, PGN 10 μg/ml"}, "IL-1": {"system": "IL-1", "conditions": "BMDC's, PGN activation", "procedure": "Supernatant were collected 24 hours following activation and the levels of IL-6 (FIG. 3M) and IL-1 (FIG. 3N) were measured.\nIsolation of bone-marrow derived dendritic cells (BMDC's): Bone-marrow was flushed out with cold RPMI-1640 from mice femur and tibia. A cell suspension was prepared and erythrocytes were removed using red blood cell (RBC) lysis buffer (Beit Haemek, Israel). […] Cells were then washed, resuspended in the same buffer, and depleted from B and T cells on a Midi-Macs separation unit through a LD or LS column (Miltenyi biotech). The depleted cells were then counted, washed and seeded (10^6/ml) in medium containing RPMI-1640, L-glutamine, β-mercaptoethanol, 10% FCS, antibiotics (Penicillin, Streptomycin) and 20 ng/ml of mouse GM-CSF (Peprotech, Rehovot, Israel). Medium was replaced every other day and cells were used for subsequent experiments on days 5-6 post culturing."}, "IFN-γ [5]": {"system": "IFN-γ", "conditions": "in vivo oral treatment (0.1 μg/feed C57BL/6, ovalbumin; 10 and 100 μg/mouse/feed SJL, PLP 139-151); ex vivo restimulation", "procedure": "(FIG. 26a) C57BL/6 mice were fed in alternate days from day −10 to day +10 with CI-201 (0.1 μg/feed) of PBS. On day 0, mice were immunized with ovalbumin in CFA. On day 10, draining lymph nodes were excised and cells stimulated with ovalbumin. Cells were expanded for a week and then re-stimulated for 4 hours with plate bound anti-CD3 and anti-CD28 (5 μg/ml) in the presence of monensin (2 μM) and tested for cytokine expression by intracellular staining. Results are gated on CD4+ T cells. […] Lymph nodes were collected 10 days later, stimulated ex vivo with 10 μg/ml of PLP 139-151 peptide or 0.5 μg/ml of anti CD3 and three days later supernatants were collected and tested by ELISA for cytokine production.\nLymph nodes were collected 10 days later, stimulated ex vivo with 10 μg/ml of PLP 139-151 peptide or 0.5 μg/ml of anti CD3 and three days later cytokine production from the supernatant was measured using the Duoset ELISA kit (R&D systems, Minneapolis, Minn.).\nEx-vivo ELISA and Intracellular staining: For intracellular staining, C57BL/6 were orally administered with CI-201 (0.1 μg/mouse/feed) or PBS as control, 5 times, once every other day. Dosing volume was 0.2 ml. Subsequently, mice were immunized subcutaneously in two flanks with 200 μl of emulsion containing 200 μg of ovalbumin and MT (100 μg). […]"}, "TNF-α [6]": {"system": "TNF-α", "conditions": "splenic CD11b cells, IFN-γ over night, PGN 24 hours", "procedure": "(§7) Isolation of Monocytes/Macrophages: Spleens were removed and a cell suspension was prepared. Erythrocytes were depleted using red blood cell (RBC) lysis buffer (Beit Haemek, Israel). Cells were washed in phosphate buffer saline (PBS) (Beit Haemek, Israel), and incubated in 4° C. for 15 min in buffer containing PBS and 0.5% bovine serum albumin (BSA) with mouse CD11b microbeads (Miltenyi biotech, Bergisch Gladbach, Germany). Cells were then washed, resuspended in the same buffer and positively selected on a Mini-Macs separation unit through a MS column (Miltenyi biotech).\n(§8) In order to assess CI-201 effect on p40 production by macrophages, splenic CD11b cells were incubated over night with IFN-γ and then activated for 24 hours with PGN in the presence CI-201."}, "CD11c+BMDC's": {"system": "CD11c+BMDC's", "conditions": "3 hours PGN 10 μg/ml with CI-201 20 μg/ml", "procedure": "Gene Chip analysis: Mouse BMDC's were enriched for CD11c+DC (>90%) with mouse CD11c microbeads from 5-6 days cultures over MS or LS columns (Miltenyi biotech). […] RNA was prepared and used to generate cRNA. Preparation of cRNA, hybridization and scanning was done in the Weizmann Institute of Science (Rehovot, Israel) on the mouse genome 430A 2.0 array (Affymetrix, Santa Clara, Calif.)."}, "Lewis rats": {"system": "Lewis rats", "experiment": "Adjuvant-induced arthritis (AIA) in Lewis rats", "type": "in vivo, rat"}, "TNF-α [7]": {"system": "TNF-α", "conditions": "IFN-γ, PGN", "procedure": "(§9) PBMC's from healthy donors were incubated over-night with IFN-γ and then activated with PGN in the presence of CI-201 for another 24 hours. Supernatants were then evaluated for p40 and TNF-α production."}, "IL-10 [8]": {"system": "IL-10", "experiment": "RT-PCR cytokine expression in the aorta: IL-10", "type": "in vivo, mouse", "experimental": "as §1"}, "IL-6": {"system": "IL-6", "conditions": "BMDC's, PGN activation", "procedure": "BMDC's were incubated for 1 hour with different CI-201 concentrations prior to activation with 10 μg/ml of PGN. Supernatant were collected 24 hours following activation and the levels of IL-6 (FIG. 3M) and IL-1 (FIG. 3N) were measured.\nas §4"}, "IL12p40 [9]": {"system": "IL12p40", "experiment": "p40 production by activated BMDC's (ELISA)", "type": "cell-based, mouse"}, "IL-10 and IFN-γ": {"system": "IL-10 and IFN-γ", "conditions": "oral 1 mg/dose 5 times every other day", "procedure": "The effects of CI-201 treatment on cytokine expression in the targeted organ—the aorta, as well as in the spleen, liver, kidneys and small intestine were evaluated using RT-PCR as described hereinabove. Apo-E KO mice were orally administered with 1 mg/dose CI-201 or with 0.2 ml/mouse PBS, 5 times every other day. The expression of the anti-inflammatory cytokine IL-10 and the pro-inflammatory cytokine IFN-γ were determined 8 weeks after final oral administration."}, "p40 [10]": {"system": "p40", "conditions": "splenic CD11b cells, IFN-γ over night, PGN 24 hours", "procedure": "as §7, §8"}, "IL-12/IL-23p40": {"system": "IL-12/IL-23p40", "experiment": "Q-PCR RNA expression in CD11c+ BMDC's: IL-12/IL-23p40", "conditions": "CI-201 20 μg/ml, PGN 10 μg/ml, first 6 hours following activation, normalized to GAPDH"}, "IL-23p19": {"system": "IL-23p19", "conditions": "CD11c+ BMDC's, CI-201 20 μg/ml, PGN 10 μg/ml"}, "TNF-α [11]": {"system": "TNF-α", "conditions": "human Mo-DC's, PGN 10 μg/ml, 24 hours", "procedure": "as §2, §3, §4"}, "Apo-E KO mice": {"system": "Apo-E KO mice", "experiment": "Assessment of atherosclerosis: lesion area in the aortic sinus", "type": "in vivo, mouse"}, "p40 [12]": {"system": "p40", "conditions": "PBMC's from two donors, IFN-γ over-night, PGN 24 hours; all tested concentrations", "procedure": "as §9"}},
  "note": "Entries after “also recorded” stand apart in the source; their conditions may differ. Like-named read-outs stand apart in the source and are kept apart here.",
  "data": [
    {"smiles": "CCCCCCCCCCCCCCCCOC[C@H](COP(=O)([O-])OCC[N+](C)(C)C)OCCCCC(=O)O", "note": "[CI-201, 1-Hexadecyl-2-(5′-Carboxy-butyl)-sn-glycero-3-phosphocholine]", "values": [
      {"measurement": "p40 production", "setting": "IL12p40 [1]", "result": "can inhibit p40 production"},
      {"measurement": "production of TNF-α", "setting": "TNF-α [2]", "result": "did not impair"},
      {"measurement": "IL-12 expression in the aorta versus PBS", "setting": "IL-12", "result": "reduced levels"},
      {"measurement": "IL-10 serum level", "setting": "IL-10 [3]; 2 weeks after end of treatment (4 weeks)", "result": "decay"},
      {"measurement": "IL-10 serum level", "setting": "IL-10 [3]; end of the treatment (2 weeks)", "result": "substantial increase"},
      {"measurement": "RNA expression level of p35", "setting": "IL-12p35", "result": "did not modify"},
      {"measurement": "SAA serum levels", "setting": "Serum Amyloide A (SAA)", "result": "no alterations"},
      {"measurement": "IFN-γ expression in the aorta versus PBS", "setting": "IFN-γ [4]", "result": "reduced expression level"},
      {"measurement": "RNA expression level of p28", "setting": "IL-27p28", "result": "did not modify"},
      {"measurement": "production of IL-1", "setting": "IL-1", "result": "did not impair"},
      {"measurement": "IFN-γ production by CD4+ T cells", "setting": "IFN-γ [5]", "result": "reduced IFN-γ production"},
      {"measurement": "TNF-α production levels versus control cells", "setting": "TNF-α [6]", "result": "no major differences"},
      {"measurement": "p19 expression (gene chip)", "setting": "CD11c+BMDC's", "result": "reduced p19 expression"},
      {"measurement": "p40 RNA expression (gene chip)", "setting": "CD11c+BMDC's", "result": "reduced RNA expression"},
      {"measurement": "arthritis development (paw swelling, arthritis score, percentage of rats with symptoms)", "setting": "Lewis rats; continuous treatment, high dose: 5 feedings before induction, then 3 times a week for about 30 days", "result": "substantially attenuated arthritis development"},
      {"measurement": "paw swelling versus PBS-pretreated rats", "setting": "Lewis rats; oral pre-treatment 4.0 mg/kg 5 times every other day before AIA induction", "result": "significant decrease"},
      {"measurement": "mobility", "setting": "Lewis rats; oral pre-treatment with the higher dose (4 mg/kg) before AIA induction", "result": "close to that of normal rats"},
      {"measurement": "TNF-α production", "setting": "TNF-α [7]; PBMC's from donor I", "result": "did not impair"},
      {"measurement": "TNF-α levels", "setting": "TNF-α [7]; PBMC's from donor II", "result": "modest reduction"},
      {"measurement": "IL-10 expression in the aorta, higher than control group", "setting": "IL-10 [8]; oral 0.025 mg/dose, 8 weeks", "result": 40, "unit": "%"},
      {"measurement": "IL-10 expression in the aorta versus PBS", "setting": "IL-10 [8]; oral 1 mg/mouse 5 times every other day, 8 weeks after final administration", "result": "elevated levels"},
      {"measurement": "production of IL-6", "setting": "IL-6", "result": "did not impair"},
      {"measurement": "p40 production", "setting": "IL12p40 [9]; BMDC's, 1 hour pre-incubation, activation with PGN (TLR 2/6) 10 μg/ml, 24 hours", "result": "significant and dose dependent reduction"},
      {"measurement": "p40 secretion", "setting": "IL12p40 [9]; BMDC's, CpG (TLR9) engagement, only 20 μg/ml of CI-201", "result": "significantly inhibit"},
      {"measurement": "p40 secretion", "setting": "IL12p40 [9]; BMDC's, Fc-CD40L activation 1 μg/ml", "result": "significant reduction"},
      {"measurement": "p40 production", "setting": "IL12p40 [9]; BMDC's, PolyI:C (TLR3) activation 25 μg/ml", "result": "significant and dose dependent p40 inhibition"},
      {"measurement": "p40 levels", "setting": "IL12p40 [9]; BMDC's, activation with LPS (TLR4) 100 ng/ml, intermediated concentrations of CI-201", "result": "significant, but small reduction"},
      {"measurement": "p40 production", "setting": "IL12p40 [9]; BMDC's, activation with Pam3CSK4 (TLR1/2) 300 ng/ml, 24 hours", "result": "significant p40 inhibition"},
      {"measurement": "concentration giving maximal inhibition of p40 production (highest concentration used)", "setting": "IL12p40 [9]; activated DC's in vitro", "result": 20, "unit": "µg/mL"},
      {"measurement": "cytokine expression in the spleen and in the small intestine versus PBS", "setting": "IL-10 and IFN-γ; 8 weeks after final administration", "result": "no differences"},
      {"measurement": "cytokine expression in the liver and in kidney", "setting": "IL-10 and IFN-γ; data not shown", "result": "No change"},
      {"measurement": "p40 production levels versus control cells", "setting": "p40 [10]", "result": "no major differences"},
      {"measurement": "p40 RNA expression, inhibition compared to control", "setting": "IL-12/IL-23p40", "result": "more than two folds"},
      {"measurement": "RNA expression level of p19", "setting": "IL-23p19", "result": "substantial inhibition"},
      {"measurement": "ability to produce TNF-α", "setting": "TNF-α [11]", "result": "without altering"},
      {"measurement": "Aortic Sinus Lesion", "setting": "Apo-E KO mice; oral 0.1 μg/dose, 3 monthly sets of 5 administrations, 12 weeks after first feeding, 26-28 weeks old mice", "result": "228,000±25,772 μm^2"},
      {"measurement": "decrease in atherosclerotic lesion in the aortic sinus as compared with the PBS treated group", "setting": "Apo-E KO mice; oral 0.1 μg/dose, P<0.05", "result": 92, "unit": "%"},
      {"measurement": "Aortic Sinus Lesion", "setting": "Apo-E KO mice; oral 1 μg/dose, 3 monthly sets of 5 administrations, 12 weeks after first feeding, 26-28 weeks old mice", "result": "295,729 ± 20,909 μm^2"},
      {"measurement": "Aortic Sinus Lesion", "setting": "Apo-E KO mice; oral 10 μg/dose, 3 monthly sets of 5 administrations, 12 weeks after first feeding, 26-28 weeks old mice", "result": "272,483 ± 20,505 μm^2"},
      {"measurement": "decrease of the aortic sinus lesion versus PBS control", "setting": "Apo-E KO mice; oral 0.025 mg/dose, 8 weeks, P=0.051", "result": 33, "unit": "%"},
      {"measurement": "most effective dose for inhibiting disease progression", "setting": "Apo-E KO mice; oral 0.1, 1 or 10 μg/dose tested", "result": 0.1, "unit": "μg/dose"},
      {"measurement": "disease progression (lesion area versus base line group)", "setting": "Apo-E KO mice; oral 0.1, 1 or 10 μg/dose, 3 monthly sets", "result": "completely inhibited disease progression; also recorded: inhibited the disease progression"},
      {"measurement": "atherogenesis in Apo-E KO mice, oral administration (summary of earlier examples)", "setting": "Apo-E KO mice; oral administration", "result": "substantially inhibited atherogenesis"},
      {"measurement": "Aortic Sinus Lesion", "setting": "Apo-E KO mice; oral gavage 0.025 mg/dose every day (5 times a week) for 8 weeks, male 12 weeks old mice", "result": "125,192±19,824 μm^2"},
      {"measurement": "p40 production", "setting": "p40 [12]", "result": "close to complete inhibition"}
    ]}
  ]
}
